Here are results for 15 compounds from patent publication US20230036854A1, “HETEROCYCLIC SPIRO-COMPOUNDS AS AM2 RECEPTOR INHIBITORS” (THE UNIVERSITY OF SHEFFIELD, priority 2018, published 2023).

SMILES strings stand for the structures.

In this assay the target is T1, AM2 receptor (1321N1 cells transfected with CALCRL+RAMP3) (Homo sapiens, UniProt O60896+Q16602).
T1 construct: host or cells: 1321N1 cells
T1 sequence (Q16602 23-461): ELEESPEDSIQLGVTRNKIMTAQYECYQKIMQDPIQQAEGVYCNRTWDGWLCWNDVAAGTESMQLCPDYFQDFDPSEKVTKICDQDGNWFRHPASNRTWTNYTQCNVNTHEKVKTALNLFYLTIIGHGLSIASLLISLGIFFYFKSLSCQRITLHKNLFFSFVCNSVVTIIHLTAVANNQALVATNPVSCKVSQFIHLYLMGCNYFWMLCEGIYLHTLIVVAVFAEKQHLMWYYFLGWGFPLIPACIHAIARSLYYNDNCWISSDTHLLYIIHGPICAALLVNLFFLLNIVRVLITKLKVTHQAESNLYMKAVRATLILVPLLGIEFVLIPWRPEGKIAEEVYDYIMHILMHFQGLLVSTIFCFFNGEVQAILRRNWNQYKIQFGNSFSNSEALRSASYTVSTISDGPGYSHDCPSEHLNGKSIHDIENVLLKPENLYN
T1 sequence (O60896 24-148): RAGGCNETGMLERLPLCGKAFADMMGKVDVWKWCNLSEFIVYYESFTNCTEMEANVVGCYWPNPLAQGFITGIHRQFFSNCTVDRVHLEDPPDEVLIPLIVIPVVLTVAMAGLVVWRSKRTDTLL
The assay can be described thus: AM2 receptor inhibition, LANCE cAMP agonist-antagonist competition assay. Type of assay: cell-based. The settings on record: inhibition of AM induced cAMP activation, read-out: AM2 D2 protocol: pIC50 (converted). On the procedure: Compounds were assessed for their ability to inhibit ligand-induced elevations of cAMP, using the Perkin Elmer LANCE cAMP assay using commercially-available cells expressing a specific receptor of interest using the following general procedure:
Compounds were prepared in dimethyl sulfoxide (DMSO—99.9% pure) (Sigma Aldrich, Cat #: D4540) added to powder stocks to produce a 20 mM solution (100% DMSO) that was sonicated at 37° C. for 10 minutes to fully dissolve the compounds. The 20 mM stocks were diluted further in DMSO to produce a 2 mM solution that was sonicated at 37° C. for 10 minutes. 2 mM stocks were dissolved in assay/stimulation buffer to produce a 400 μM solution that was sonicated at 37° C. for 10 minutes for all cAMP assays. All stocks were stored at −20° C. Then serial dilution (Dilution factor: 10) was performed to achieve the desire experimental concentrations.
Competition assays were performed according to the manufactures instructions using LANCE® TR-FRET cAMP assay kit (Perkin Elmer, Cat #: AD0264). Serial dilutions (3 μl/well) of the molecules were plated in a 384-well OptiPlate (Perkin Elmer, Cat #: 6007299) in duplicates. Appropriate controls (100% stimulation: Forskolin and 0% stimulation: Vehicle control) (6 μl/well) were included in each plate for data normalization. Following the compound addition, 6 μl of G-protein coupled receptor overexpressing cells/Alexa Fluor antibody solution (1:100 dilution) was added in each well at a desired density of 2500cells/well. The overexpressing cell lines were purchased from DiscoveRx, Birmingham, UK. After spinning the plate at 1000 rpm for 1 minute and vortexing briefly, the cells were pre-incubated with the compounds for 30 minutes at room temperature (covered). Then 3 μl of the equivalent peptide ligand (EC50 dose) was added to all the wells except vehicle and forskolin controls. The plate were then spun down at 1000 rpm for 1 minute and once finished they were vortexed briefly and covered. Cells were stimulated in the presence of the ligands for 15 minutes at room temperature. After stimulation 12 μl of detection mix (Europium-Chelate streptavidin/biotinylated cAMP tracer solution) was added to all wells and incubated for 60 minutes at room temperature. The plate was then read on the Enspire multimode Plate reader (Perkin Elmer), at; 320/340 nm excitation and 615/665 nm emission was recorded.
Assay/Stimulation Buffer (30 mL)—pH 7.4 • 28 mL Hank's Balanced salt solution (+MgCl2, +CaCl2)—(Thermo Fisher Cat #:14170112) • 150 μl HEPES (1M)—(Thermo Fisher Cat #:15630080) • 400 μl Stabilizer (DTPA) Purified BSA (7.5%)—(Perkin Elmer, Cat #: CR84-100)
The ability of a compound to inhibit the AM induced cAMP activation in AM2 receptor-expressing cells (1321N1 cells transfected with CALCRL+RAMP3, sourced from DiscoverX catalogue number 95-0169C6) was assessed using the protocol above.
`CNCc1ccccc1CN(CC(=O)Nc1ccc2c(c1)C[C@@]1(C2)C(=O)Nc2ncccc21)C(=O)C1(C)CCN(C(=O)c2ncccn2)CC1` [Example 18, (R)-4-Methyl-N-(2-((methylamino)methyl)benzyl)-N-(2-oxo-2-((2′-oxo-1,1′,2′,3-tetrahydrospiro[indene-2,3′-pyrrolo[2,3-b]pyridin]-5-yl)amino)ethyl)-1-(pyrimidine-2-carbonyl)piperidine-4-carboxamide]: the IC50 is 7.41 nM.
In the case of `CNCc1ccccc1CN(CC(=O)Nc1ccc2c(c1)C[C@@]1(C2)C(=O)Nc2ncccc21)C(=O)C1(C)CCN(C(=O)c2cnccn2)CC1` [Example 19, (R)-4-Methyl-N-(2-((methylamino)methyl)benzyl)-N-(2-oxo-2-((2′-oxo-1,1′,2′,3-tetrahydrospiro[indene-2,3′-pyrrolo[2,3-b]pyridin]-5-yl)amino)ethyl)-1-(pyrazine-2-carbonyl)piperidine-4-carboxamide] it was 4.47 nM; in that of `CNCc1ccccc1CN(CC(=O)Nc1ccc2c(c1)CC1(C2)C(=O)Nc2ncccc21)C(=O)C1(C)CCN(C(=O)C2CC2)CC1` (stereo not drawn) [Example 20, 1-(Cyclopropanecarbonyl)-4-methyl-N-(2-((methylamino)methyl)benzyl)-N-(2-oxo-2-((2′-oxo-1,1′,2′,3-tetrahydrospiro[indene-2,3′-pyrrolo[2,3-b]pyridin]-5-yl)amino)ethyl)piperidine-4-carboxamide], 4.27 nM; in that of `CNCc1ccccc1CN(CC(=O)Nc1ccc2c(c1)CC1(C2)C(=O)Nc2ncccc21)C(=O)C1(C)CCN(C(=O)COC)CC1` (stereo not drawn) [Example 21, 1-(2-Methoxyacetyl)-4-methyl-N-(2-((methylamino)methyl)benzyl)-N-(2-oxo-2-((2′-oxo-1,1′,2′,3-tetrahydrospiro[indene-2,3′-pyrrolo[2,3-b]pyridin]-5-yl)amino)ethyl)piperidine-4-carboxamide], 1.51 nM.
The value for `CNCc1ccccc1CN(CC(=O)Nc1ccc2c(c1)CC1(C2)C(=O)Nc2ncccc21)C(=O)C1(C)CCN(C(=O)CN)CC1` (stereo not drawn) [Example 22, 1-(2-Aminoacetyl)-4-methyl-N-(2-((methylamino)methyl)benzyl)-N-(2-oxo-2-((2′-oxo-1,1′,2′,3-tetrahydrospiro[indene-2,3′-pyrrolo[2,3-b]pyridin]-5-yl)amino)ethyl)piperidine-4-carboxamide] was 0.631 nM; that for `CNCc1ccccc1CN(CC(=O)Nc1ccc2c(c1)C[C@@]1(C2)C(=O)Nc2ncccc21)C(=O)C1(C)CCN(C(=O)C(C)NC)CC1` (stereo partly drawn) [Example 23, 4-Methyl-N-(2-((methylamino)methyl)benzyl)-1-(2-(methylamino)propanoyl)-N-(2-oxo-2-(((R)-2′-oxo-1,1′,2′,3-tetrahydrospiro[indene-2,3′-pyrrolo[2,3-b]pyridin]-5-yl)amino)ethyl)piperidine-4-carboxamide] was 1.38 nM; that for `CNCc1ccccc1CN(CC(=O)Nc1ccc2c(c1)C[C@@]1(C2)C(=O)Nc2ncccc21)C(=O)C1(C)CCN(C(=O)c2ccncn2)CC1` [Example 24, (R)-4-Methyl-N-(2-((methylamino)methyl)benzyl)-N-(2-oxo-2-((2′-oxo-1,1′,2′,3-tetrahydrospiro[indene-2,3′-pyrrolo[2,3-b]pyridin]-5-yl)amino)ethyl)-1-(pyrimidine-4-carbonyl) piperidine-4-carboxamide] was 2.95 nM.
With `CNCc1ccccc1CN(CC(=O)Nc1ccc2c(c1)C[C@@]1(C2)C(=O)Nc2ncccc21)C(=O)C1(C)CCN(C(=O)c2ccn[nH]2)CC1` [Example 25, (R)-4-Methyl-N-(2-((methylamino)methyl)benzyl)-N-(2-oxo-2-((2′-oxo-1,1′,2′,3-tetrahydrospiro[indene-2,3′-pyrrolo[2,3-b]pyridin]-5-yl)amino)ethyl)-1-(1H-pyrazole-5-carbonyl) piperidine-4-carboxamide], the IC50 is 2.14 nM.
In the case of `CNCc1ccccc1CN(CC(=O)Nc1ccc2c(c1)C[C@@]1(C2)C(=O)Nc2ncccc21)C(=O)C1(C)CCN(C(=O)c2cccnn2)CC1` [Example 26, (R)-4-Methyl-N-(2-((methylamino)methyl)benzyl)-N-(2-oxo-2-((2′-oxo-1,1′,2′,3-tetrahydrospiro[indene-2,3′-pyrrolo[2,3-b]pyridin]-5-yl)amino)ethyl)-1-(pyridazine-3-carbonyl) piperidine-4-carboxamide] it was 4.57 nM.
Regarding `CNCc1ccccc1CN(CC(=O)Nc1ccc2c(c1)C[C@@]1(C2)C(=O)Nc2ncccc21)C(=O)C1(C)CCN(C(=O)CC2CC2)CC1` [Example 27, (R)-1-(2-Cyclopropylacetyl)-4-methyl-N-(2-((methylamino)methyl)benzyl)-N-(2-oxo-2-((2′-oxo-1,1′,2′,3-tetrahydrospiro[indene-2,3′-pyrrolo[2,3-b]pyridin]-5-yl)amino)ethyl)piperidine-4-carboxamide], the IC50 is 95.5 nM.
For the compound `CNCc1ccccc1CN(CC(=O)Nc1ccc2c(c1)C[C@@]1(C2)C(=O)Nc2ncccc21)C(=O)C1(C)CCN(C(=O)CN)CC1` [Example 28, (R)-1-(2-Aminoacetyl)-4-methyl-N-(2-((methylamino)methyl)benzyl)-N-(2-oxo-2-((2′-oxo-1,1′,2′,3-tetrahydrospiro[indene-2,3′-pyrrolo[2,3-b]pyridin]-5-yl)amino)ethyl)piperidine-4-carboxamide], the IC50 was 3.55 nM.
As to `CNCc1ccccc1CN(CC(=O)Nc1ccc2c(c1)C[C@@]1(C2)C(=O)Nc2ncccc21)C(=O)C1(C)CCN(C(=O)c2ccc(N)cn2)CC1` [Example 29, (R)-1-(5-Aminopicolinoyl)-4-methyl-N-(2-((methylamino)methyl)benzyl)-N-(2-oxo-2-((2′-oxo-1,1′,2′,3-tetrahydrospiro[indene-2,3′-pyrrolo[2,3-b]pyridin]-5-yl)amino)ethyl)piperidine-4-carboxamide], the IC50 is 17.8 nM.
As to `CNCc1ccccc1CN(CC(=O)Nc1ccc2c(c1)CC1(C2)C(=O)Nc2ncccc21)C(=O)C1(C)CCN(C(=O)CN2CCNCC2)CC1` (stereo not drawn) [Example 30, 4-Methyl-N-(2-((methylamino)methyl)benzyl)-N-(2-oxo-2-((2′-oxo-1,1′,2′,3-tetrahydrospiro[indene-2,3′-pyrrolo[2,3-b]pyridin]-5-yl)amino)ethyl)-1-(2-(piperazin-1-yl)acetyl)piperidine-4-carboxamide], the IC50 was 0.589 nM.
In the case of `CNCc1ccccc1CN(CC(=O)Nc1ccc2c(c1)CC1(C2)C(=O)Nc2ncccc21)C(=O)C1(C)CCN(C(=O)CCN(C)C)CC1` (stereo not drawn) [Example 31] it was 1.15 nM; in that of `CNCc1ccccc1CN(CC(=O)Nc1ccc2c(c1)C[C@@]1(C2)C(=O)Nc2ncccc21)C(=O)C1(C)CCN(C(=O)CN2CCN(C(C)=O)CC2)CC1` [Example 32, (R)-1-(2-(4-Acetylpiperazin-1-yl)acetyl)-4-methyl-N-(2-((methylamino)methyl)benzyl)-N-(2-oxo-2-((2′-oxo-1,1′,2′,3-tetrahydrospiro[indene-2,3′-pyrrolo[2,3-b]pyridin]-5-yl)amino)ethyl)piperidine-4-carboxamide], 2.34 nM.
